We go through two compounds from ChEMBL document CHEMBL1131563, “Effects of alpha- and beta-galactosylated C2-ceramides on the immune system” (J Med Chem, 1998).

The structures appear in SMILES notation.

Assay [1] is filed under the species Mus musculus. As to the kind of experiment: Concentration at which compound induced concentration-dependent stimulation of the MLR responses in murine spleen cells; range = 80 ng/mL to 2 ug/mL. Type of assay: functional, cell-based.
The species named for assay [2] is Mus musculus. As to the kind of experiment: Concentration at which compound suppressed the MLR response (mixed leukocyte reaction) in murine spleen cells; range = 80 ng/mL to 2 ug/mL. The class given is functional, cell-based.

`CCCCCCCCCCCCC/C=C/[C@@H](O)[C@H](CO[C@@H]1O[C@@H](CO)[C@H](O)[C@H](O)[C@@H]1O)NC(C)=O`: the Concentration in assay [1] is 2 µg/mL.

The compound `CCCCCCCCCCCCC/C=C/[C@@H](O)[C@H](CO)NC(C)=O` returned a Concentration in assay [2] of 2 µg/mL.
